The text below walks through data of PubChem BioAssay (NCI).

The structures appear in SMILES notation.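 Cultured in 96-well plates, cells were exposed to test compound for 48 hours across five concentrations. The concentration for 50% growth inhibition is given as GI50. TGI: concentration producing complete growth inhibition.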

What all share (assay): DTP human tumour cell line panel, 48 h
Assay [1] relates to TK-10 renal.
For assay [2], the system named is NCI-H522 lung.
Assay [3] concerns HT29 colon.
For assay [4], the system named is U251 CNS.
The test system of assay [5] is MDA-MB-231 breast.
Assay [6] has as its system MALME-3M melanoma.
For assay [7], the system named is PC-3 prostate.
The test system of assay [8] is SW-620 colon.
Assay [9] deals with UO-31 renal.
For assay [10], the system named is CCRF-CEM leukemia.

A word on the TGI: it is the concentration at which net growth stops. On to `Cn1ccnc1CCc1ccc(F)cc1F`, for which the TGI in assay [1], in [2], in assay [3], in [4], in assay [5] and in assay [6] was greater than 100 µM throughout. Further, the TGI in [7], in assay [8], in assay [9] and in assay [10] was greater than 100 µM throughout.
In the case of `N#CCCNCCN(CCN(C(=O)Nc1ccccc1)c1ccccc1)C(=O)Nc1ccccc1`, the TGI in [1] is greater than 100 µM; in assay [2], 54.4 µM; in assay [3] it was greater than 100 µM; in assay [4], greater than 100 µM; in [5], greater than 100 µM; in [6] it was 54.8 µM. Besides, the TGI in [7], in assay [8], in assay [9] and in assay [10] was greater than 100 µM throughout.
As to `COC(c1ccsc1)C(C#N)(C#N)N=Cc1ccsc1` (stereo unspecified), the TGI came to 36.2 µM in assay [1]; 21.3 µM in assay [2]; 25.1 µM in assay [3]; 33.5 µM in assay [4]; 21.3 µM in assay [5]; 29.8 µM in assay [6]. Also, the TGI in assay [7] was found to be 27.5 µM; in [8] it was 28.4 µM; in assay [9], 26.2 µM; in [10], 39 µM.
The GI50 is the concentration giving 50% growth inhibition. In the case of `Cc1c(CNc2ccc(Cl)c(C(=O)NC(CC(=O)O)C(=O)O)c2)ccc2nc(N)nc(N)c12` (stereo unspecified), the GI50 in assay [1] is 363 µM; in assay [2], 211 µM; in assay [4], 75.8 µM; in assay [5], greater than 1000 µM; in [7], less than 0.01 µM; in assay [9] it was 1.86 µM. Also, the TGI in assay [1] is greater than 1000 µM; in assay [2], 682 µM; in assay [3] it was greater than 1000 µM; in assay [4], greater than 1000 µM; in assay [5] it was greater than 1000 µM; in assay [6], 692 µM. The TGI in assay [7], in [8], in [9] and in [10] was greater than 1000 µM in each case.
Regarding `CCSSCS(C)(=O)=O`, the TGI in [1] is greater than 100 µM; in [2], 40 µM; in assay [3] it was greater than 100 µM; in [4], greater than 100 µM; in assay [5], greater than 100 µM; in [6], greater than 100 µM. In addition, the TGI is greater than 100 µM in [7], greater than 100 µM in assay [8], 24.4 µM in assay [9] and greater than 100 µM in assay [10].
As for `COc1ccc2c(c1)OCC1(O)Cc3ccccc3OC21` (stereo unspecified), the TGI in assay [1], in assay [2], in [3], in assay [4], in assay [5] and in assay [6] was greater than 100 µM throughout. Besides, the TGI in [7], in [8], in [9] and in [10] was greater than 100 µM throughout.
`O=C(Nc1ccccc1)c1cc2c(cc1Cl)Sc1nccn1S2(=O)=O`: the TGI in assay [1] was greater than 100 µM; in [2] it was 38.6 µM; in [3], greater than 75.6 µM; in assay [4] it was greater than 71.7 µM; in assay [5], greater than 81.2 µM; in assay [6], 74.3 µM. The TGI is greater than 70.1 µM in assay [7], greater than 78.9 µM in assay [8], greater than 100 µM in assay [9] and greater than 75.5 µM in [10].
`COc1ccc(-c2oc3ccc(C)cc3c(=O)c2O)cc1`: the TGI in assay [1], in assay [2], in [3], in [4], in assay [5] and in assay [6] was greater than 100 µM throughout. For the same molecule, the concentration for total growth inhibition (TGI) in [7], in assay [8], in assay [9] and in assay [10] was greater than 100 µM in each case.
For `CCCCC/C=C1/CC(CO)(COC(=O)CC(C(C)C)C(C)C)OC1=O` (stereo unspecified), the TGI in assay [1] came to 32.5 µM; in assay [2], 29.9 µM; in [3], 34.9 µM; in [4], 27.6 µM; in assay [5], 32.5 µM; in assay [6] it was 18.2 µM. Also, the TGI in assay [7] was 24.6 µM; in [8], 50.8 µM; in [9], 24.1 µM; in assay [10], greater than 100 µM.
For the molecule `Cc1c(-c2ccccc2)c(C#N)c2nnn(-c3ccccc3)c(=O)n12`, the TGI in assay [1], in assay [2], in assay [3], in [4], in assay [5] and in assay [6] was greater than 100 µM each time. Further, the TGI in [7], in assay [8], in [9] and in assay [10] was greater than 100 µM each time.
With `CCOC(=O)C(=[N+]=[N-])C(=O)C[N+]12CCN(CC1)CC2`, the TGI in assay [1], in assay [2], in assay [3], in assay [4], in assay [5] and in [6] was greater than 100 µM throughout. Moreover, the TGI in assay [7], in assay [8], in [9] and in assay [10] was greater than 100 µM each time.
Take `CN(Cc1c2ccccc2cc2ccccc12)S(=O)(=O)c1ccc(-c2c3nc(c(-c4ccc(S(=O)(=O)N(C)Cc5c6ccccc6cc6ccccc56)cc4)c4ccc([nH]4)c(-c4ccc(S(=O)(=O)N(C)Cc5c6ccccc6cc6ccccc56)cc4)c4nc(c(-c5ccc(S(=O)(=O)N(C)Cc6c7ccccc7cc7ccccc67)cc5)c5ccc2[nH]5)C=C4)C=C3)cc1`: the TGI in assay [1], in [2], in assay [3], in [4], in assay [5] and in [6] was greater than 100 µM throughout. Further, the concentration for total growth inhibition (TGI) in [7], in assay [8], in [9] and in assay [10] was greater than 100 µM each time.
Turning to `Cc1cccc2c1C(=O)C1(Cc3ccccc3C1=O)C2` (stereo unspecified), the TGI in assay [1], in assay [2], in assay [3], in [4], in assay [5] and in assay [6] was greater than 100 µM in each case. Besides, the TGI was greater than 100 µM in assay [7], greater than 100 µM in assay [8], 96.2 µM in assay [9] and greater than 100 µM in assay [10].
